Ki data for twelve compounds are collected here from patent US11014929B2, “Pyrazolopyrimidine compounds and uses thereof” (Incyte Corporation, priority 2016, dated 2021).

The term Ki denotes the equilibrium dissociation constant of an inhibitor or competing ligand from its target. The low end stands for tighter binding, the high end for weaker binding.

Chain of HPK1 (Q92918 1-346): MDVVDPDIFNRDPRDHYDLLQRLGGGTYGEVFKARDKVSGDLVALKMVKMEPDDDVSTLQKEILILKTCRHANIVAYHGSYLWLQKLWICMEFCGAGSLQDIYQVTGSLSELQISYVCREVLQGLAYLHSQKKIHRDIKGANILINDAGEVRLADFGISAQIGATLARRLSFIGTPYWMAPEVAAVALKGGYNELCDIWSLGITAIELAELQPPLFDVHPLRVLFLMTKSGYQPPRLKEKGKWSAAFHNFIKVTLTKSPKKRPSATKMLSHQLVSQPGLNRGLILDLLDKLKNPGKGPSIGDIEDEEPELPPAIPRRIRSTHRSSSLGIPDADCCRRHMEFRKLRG

The target in this test is HPK1 (Homo sapiens (Human), UniProt Q92918). The experiment in a line: HPK1 Kinase Binding Assay. The following applies: LanthaScreen tracer 222 binding, active HPK1, one hour incubation at 25° C. An outline of the steps:
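This is a LanthaScreen tracer-binding format: a tracer 222/Eu-anti-GST antibody mix (18 nM and 4 nM solution) is added to active HPK1 (4 nM solution) with 3-fold, 11-point compound dilutions. Incubation is 1 h at 25 °C in HEPES pH 7.5 buffer before reading, and Ki is determined.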
(In general: TR-FRET usually uses a lanthanide donor and a delayed reading to cut background.)
The compound `Fc1cc2c(c(F)c1-c1ncc3[nH]nc(-c4ccc(N5CCOCC5)nc4)c3n1)CNCC2` [Example 98, 4-(5-(5-(6,8-Difluoro-1,2,3,4-tetrahydroisoquinolin-7-yl)-1H-pyrazolo[4,3-d]pyrimidin-3-yl)pyridin-2-yl)morpholine] had a Ki of no more than 100 nM.
The result for `CNCc1cc(F)c(-c2ncc3[nH]nc(-c4cnc(N5CCOCC5)c(C#N)c4)c3n2)c(F)c1` [Example 68, 5-(5-(2,6-Difluoro-4-((methylamino)methyl)phenyl)-1H-pyrazolo[4,3-d]pyrimidin-3-yl)-2-morpholinonicotinonitrile] reads no more than 100 nM.
For `CN1CCN(c2ccc(-c3n[nH]c4cnc(-c5c(F)ccc6c5CCCC6N)nc34)cc2)CC1` (stereo not drawn) [Example 121, 6-Fluoro-5-(3-(4-(4-methylpiperazin-1-yl)phenyl)-1H-pyrazolo[4,3-d]pyrimidin-5-yl)-1,2,3,4-tetrahydronaphthalen-1-amine], the Ki was no more than 100 nM.
Take `COc1cccc(F)c1-c1ncc2[nH]nc(-c3ccc(N4CCN(C)CC4)cc3)c2n1` [Example 11, 5-(2-Fluoro-6-methoxyphenyl)-3-(4-(4-methylpiperazin-1-yl)phenyl)-1H-pyrazolo[4,3-d]pyrimidine]: the Ki was no more than 100 nM.
The result for `CNCc1cc(F)c(-c2ncc3[nH]nc(-c4ccc(N5CCN(CC(C)(C)O)CC5)nc4)c3n2)c(F)c1` [Example 70, 1-(4-(5-(5-(2,6-Difluoro-4-((methylamino)methyl)phenyl)-1H-pyrazolo[4,3-d]pyrimidin-3-yl)pyridin-2-yl)piperazin-1-yl)-2-methylpropan-2-ol] reads no more than 100 nM; that for `CNCc1cc(F)c(-c2ncc3[nH]nc(-c4ccc(N5CCN(CCOC)CC5)cc4)c3n2)c(F)c1` [Example 123, 1-(3,5-Difluoro-4-(3-(4-(4-(2-methoxyethyl)piperazin-1-yl)phenyl)-1H-pyrazolo[4,3-d]pyrimidin-5-yl)phenyl)-N-methylmethanamine], no more than 100 nM.
With `NC1CCCc2c1cc(F)c(-c1ncc3[nH]nc(-c4ccc(N5CCOCC5)nc4)c3n1)c2F` (stereo not drawn) [Example 117, 5,7-Difluoro-6-(3-(6-morpholinopyridin-3-yl)-1H-pyrazolo[4,3-d]pyrimidin-5-yl)-1,2,3,4-tetrahydronaphthalen-1-amine] the figure was no more than 100 nM; with `COc1cccc(F)c1-c1ncc2[nH]nc(-c3cccc(N(C)C)c3)c2n1` [Example 30, 3-(5-(2-Fluoro-6-methoxyphenyl)-1H-pyrazolo[4,3-d]pyrimidin-3-yl)-N,N-dimethylaniline], no more than 100 nM.
Compound `CNCc1cc(F)c(-c2ncc3[nH]nc(-c4ccc(C5CCOCC5)cc4)c3n2)c(F)c1` [Example 66, 1-(3,5-Difluoro-4-(3-(4-(tetrahydro-2H-pyran-4-yl)phenyl)-1H-pyrazolo[4,3-d]pyrimidin-5-yl)phenyl)-N-methylmethanamine] had a Ki of no more than 100 nM.
Regarding `CNCc1cc(F)c(-c2ncc3[nH]nc(-c4cccc(C#N)c4)c3n2)c(F)c1` [Example 64, 3-(5-(2,6-Difluoro-4-((methylamino)methyl)phenyl)-1H-pyrazolo[4,3-d]pyrimidin-3-yl)benzonitrile], the Ki was no more than 100 nM.
The result for `COc1cccc(F)c1-c1ncc2[nH]nc(OCc3ccccc3)c2n1` [Example 89, 3-(Benzyloxy)-5-(2-fluoro-6-methoxyphenyl)-1H-pyrazolo[4,3-d]pyrimidine] reads no more than 100 nM; that for `COc1cccc(F)c1-c1ncc2[nH]nc(-c3ccc(C4CC4)cc3)c2n1` [Example 39, 3-(4-Cyclopropylphenyl)-5-(2-fluoro-6-methoxyphenyl)-1H-pyrazolo[4,3-d]pyrimidine], no more than 100 nM.
